Experimental data published in patent US20080221093A1, “Metalloprotease inhibitors containing a heterocyclic moiety” (priority 2007, published 2008).

Biological target: T1, catalytic domain of MMP-13 enzyme (Homo sapiens, UniProt P45452)
T1 construct: stock solution of catalytic domain of MMP-13 enzyme; purchased Invitek (Berlin) 30100812
Experiment: Assay for determining MMP-13 inhibition (fluorescent substrate)
Assay type: biochemical
Settings: compounds named as lower than 100 nM
Experimental: Assay for Determining MMP-13 Inhibition
The typical assay for MMP-13 activity is carried out in assay buffer comprised of 50 mM Tris, pH 7.5, 150 mM NaCl, 5 mM CaCl2 and 0.05% Brij-35. Different concentrations of tested compounds are prepared in assay buffer in 50 μL aliquots. 10 μL of a 50 nM stock solution of catalytic domain of MMP-13 enzyme (produced by Alantos or commercially available from Invitek (Berlin), Cat.# 30100812) is added to the compound solution. The mixture of enzyme and compound in assay buffer is thoroughly mixed and incubated for 10 min at room temperature. Upon the completion of incubation, the assay is started by addition of 40 μL of a 12.5 μM stock solution of MMP-13 fluorescent substrate (Calbiochem, Cat. No. 444235). The time-dependent increase in fluorescence is measured at the 320 nm excitation and 390 nm emission by automatic plate multireader. The IC50 values are calculated from the initial reaction rates.

Compound	IC50 [nM]
O=C1COc2ccc(CNC(=O)c3cnc4ccccc4n3)cc2N1 [3/137]	< 100
O=C1COc2ccc(CNC(=O)C3NC(=O)c4ccccc4N3)cc2N1 (centres unmarked) [Example 1/4]	< 100
